From ChEMBL document CHEMBL3286225, “Novel carboline derivatives as potent antifungal lead compounds: design, synthesis, and biological evaluation” (ACS Med Chem Lett, 2014) come the findings set out here.

Converted amounts (≈) assume the structure as drawn.

Format in all cases: functional
The test system of one test is Pichia kudriavzevii. In words: Antifungal activity against Candida krusei 0710397 after 7 days by serial dilution method. Particulars: Pichia kudriavzevii, 0710397, 168 h.
The next test deals with Candida albicans. The test is described as follows: Antifungal activity against fluconazole-sensitive Candida albicans SC5314 after 24 hrs by serial dilution method. The settings on record: SC5314, 24 h.
The next test relates to Candida parapsilosis. The test is described as follows: Antifungal activity against Candida parapsilosis ATCC 22019 after 24 hrs by serial dilution method. Particulars: Lodderomyces parapsilosis, ATCC 22019, 24 h.
A further test relates to Nannizzia gypsea. In words: Antifungal activity against Microsporum gypseum Cmccfmza after 7 days by serial dilution method. The settings on record: 168 h.
The test system of another test is Cryptococcus neoformans. The test is described as follows: Antifungal activity against Cryptococcus neoformans 32609 after 72 hrs by serial dilution method. The settings on record: Cryptococcus neoformans, 32609, 72 h.
For the next test, the system named is Candida tropicalis. In words: Antifungal activity against Candida tropicalis after 7 days by serial dilution method. Particulars: 168 h.
The subject of another test is Trichophyton rubrum. In words: Antifungal activity against Trichophyton rubrum Cmccftla after 7 days by serial dilution method. Particulars: 168 h.
The test system of another test is Nakaseomyces glabratus. In words: Antifungal activity against Candida glabrata 537 after 24 hrs by serial dilution method. Particulars: Nakaseomyces glabratus, 537, 24 h.
A further test deals with Aspergillus fumigatus. In words: Antifungal activity against Aspergillus fumigatus 07544 after 7 days by serial dilution method. The settings on record: Aspergillus fumigatus, 07544, 168 h.

On to `Fc1ccc(OCCCCn2c3c(c4cc(F)ccc42)CNCC3)cc1`, for which the MIC80 (in general, an inhibitory concentration at the 80% level, which refers to growth in some studies and to a panel of isolates in others) against Pichia kudriavzevii is 4 µg/mL (≈ 11.2 µM); in the test with Candida albicans it was 16 µg/mL (≈ 44.9 µM); against Candida parapsilosis it was 16 µg/mL (≈ 44.9 µM); against Nannizzia gypsea it was 8 µg/mL (≈ 22.4 µM); with Cryptococcus neoformans, 16 µg/mL (≈ 44.9 µM); against Candida tropicalis it was 16 µg/mL (≈ 44.9 µM). In the test on Trichophyton rubrum, this compound displayed an MIC80 of 16 µg/mL (≈ 44.9 µM).
On to `COc1ccc2c(c1)c1c(n2CCCOc2ccc(Cl)cc2)CCN(C)C1`, for which the MIC80 was greater than 64 µg/mL against Nakaseomyces glabratus; 32 µg/mL (≈ 83.1 µM) against Aspergillus fumigatus; 32 µg/mL (≈ 83.1 µM) in the test with Candida albicans; 32 µg/mL (≈ 83.1 µM) in the test on Candida parapsilosis; 8 µg/mL (≈ 20.8 µM) against Nannizzia gypsea; 8 µg/mL (≈ 20.8 µM) in the test with Cryptococcus neoformans. In the test on Trichophyton rubrum, this compound displayed an MIC80 of 8 µg/mL (≈ 20.8 µM).
In the case of `Fc1ccc(F)c(OCCCn2c3c(c4cc(F)ccc42)CNCC3)c1`, the MIC80 in the test with Pichia kudriavzevii came to 4 µg/mL (≈ 11.1 µM); with Candida albicans, 4 µg/mL (≈ 11.1 µM); with Candida parapsilosis it was 64 µg/mL (≈ 178 µM); with Nannizzia gypsea it was 2 µg/mL (≈ 5.55 µM); in the test on Cryptococcus neoformans it was 16 µg/mL (≈ 44.4 µM); with Candida tropicalis, 16 µg/mL (≈ 44.4 µM). In the test on Trichophyton rubrum, this compound had an MIC80 of 8 µg/mL (≈ 22.2 µM).
On to `Fc1ccc(NCCCn2c3c(c4cc(F)ccc42)CNCC3)cc1`, for which the MIC80 against Pichia kudriavzevii is 16 µg/mL (≈ 46.9 µM); with Candida albicans, 8 µg/mL (≈ 23.4 µM); against Candida parapsilosis it was 16 µg/mL (≈ 46.9 µM); against Nannizzia gypsea, 16 µg/mL (≈ 46.9 µM); against Cryptococcus neoformans, 32 µg/mL (≈ 93.7 µM); with Candida tropicalis, 64 µg/mL (≈ 187 µM). This compound showed an MIC80 against Trichophyton rubrum of 32 µg/mL (≈ 93.7 µM).
For the compound `Fc1ccc(OCCCn2c3c(c4cc(Cl)ccc42)CNCC3)cc1`, the MIC80 with Pichia kudriavzevii, in the test with Candida albicans, in the test with Candida parapsilosis, in the test with Nannizzia gypsea, in the test with Cryptococcus neoformans and against Candida tropicalis was 4 µg/mL (≈ 11.1 µM) in each case. In the test on Trichophyton rubrum, this compound gave an MIC80 of 8 µg/mL (≈ 22.3 µM).
For the compound `Fc1ccc2c(c1)c1c(n2CCCOc2cccc(Br)c2)CCNC1`, the MIC80 in the test on Pichia kudriavzevii turned out to be 4 µg/mL (≈ 9.92 µM); in the test with Candida albicans, 2 µg/mL (≈ 4.96 µM); with Candida parapsilosis it was 4 µg/mL (≈ 9.92 µM); with Nannizzia gypsea, 2 µg/mL (≈ 4.96 µM); against Cryptococcus neoformans it was 4 µg/mL (≈ 9.92 µM); in the test on Candida tropicalis, 16 µg/mL (≈ 39.7 µM). Moreover, the MIC80 in the test with Trichophyton rubrum came out at 4 µg/mL (≈ 9.92 µM).
Consider `CN1CCc2c(c3cc(C(F)(F)F)ccc3n2CCCOc2ccc(Cl)cc2)C1`, for which the MIC80 is 64 µg/mL (≈ 151 µM) with Nakaseomyces glabratus; greater than 64 µg/mL against Aspergillus fumigatus; greater than 64 µg/mL with Candida albicans; greater than 64 µg/mL in the test on Candida parapsilosis; 64 µg/mL (≈ 151 µM) in the test on Nannizzia gypsea; 64 µg/mL (≈ 151 µM) against Cryptococcus neoformans. The compound further yielded an MIC80 with Trichophyton rubrum of 64 µg/mL (≈ 151 µM).
For `CN1CCc2c(c3cc(Cl)ccc3n2CC(O)c2ccccc2)C1` (stereo not drawn), the MIC80 is 32 µg/mL (≈ 93.9 µM) against Nakaseomyces glabratus; greater than 64 µg/mL in the test on Aspergillus fumigatus; greater than 64 µg/mL in the test with Candida albicans; 64 µg/mL (≈ 188 µM) against Candida parapsilosis; 32 µg/mL (≈ 93.9 µM) against Nannizzia gypsea; 32 µg/mL (≈ 93.9 µM) against Cryptococcus neoformans. For the same compound, the MIC80 in the test with Trichophyton rubrum was greater than 64 µg/mL.
For the compound `Fc1ccc2c(c1)c1c(n2CCCOc2cccc(F)c2F)CCNC1`, the MIC80 against Pichia kudriavzevii came out at 4 µg/mL (≈ 11.1 µM); in the test with Candida albicans, 32 µg/mL (≈ 88.8 µM); against Candida parapsilosis, 4 µg/mL (≈ 11.1 µM); in the test on Nannizzia gypsea, 16 µg/mL (≈ 44.4 µM); against Cryptococcus neoformans, 32 µg/mL (≈ 88.8 µM); against Candida tropicalis it was 16 µg/mL (≈ 44.4 µM). The compound further yielded an MIC80 in the test with Trichophyton rubrum of 32 µg/mL (≈ 88.8 µM).
In the case of `Fc1ccc(OCCCn2c3c(c4cc(Br)ccc42)CNCC3)cc1`, the MIC80 with Pichia kudriavzevii stood at 4 µg/mL (≈ 9.92 µM); in the test on Candida albicans, 4 µg/mL (≈ 9.92 µM); in the test on Candida parapsilosis, 4 µg/mL (≈ 9.92 µM); against Nannizzia gypsea, 4 µg/mL (≈ 9.92 µM); against Cryptococcus neoformans, 4 µg/mL (≈ 9.92 µM); in the test on Candida tropicalis, 16 µg/mL (≈ 39.7 µM). For the same compound, the MIC80 in the test with Trichophyton rubrum was determined as 8 µg/mL (≈ 19.8 µM).
Consider `Cc1ccc2c(c1)c1c(n2CCCOc2cccc(Br)c2)CCNC1`, for which the MIC80 against Pichia kudriavzevii was determined as 4 µg/mL (≈ 10 µM); in the test on Candida albicans, 16 µg/mL (≈ 40.1 µM); in the test with Candida parapsilosis, 16 µg/mL (≈ 40.1 µM); against Nannizzia gypsea, 16 µg/mL (≈ 40.1 µM); with Cryptococcus neoformans, 16 µg/mL (≈ 40.1 µM); in the test with Candida tropicalis it was 16 µg/mL (≈ 40.1 µM). The compound also showed an MIC80 in the test on Trichophyton rubrum of 16 µg/mL (≈ 40.1 µM).
Consider `Fc1ccc2c(c1)c1c(n2CCCOc2ccc(F)c(F)c2F)CCNC1`, for which the MIC80 with Pichia kudriavzevii came to 4 µg/mL (≈ 10.6 µM); against Candida albicans, 8 µg/mL (≈ 21.1 µM); in the test on Candida parapsilosis, 64 µg/mL (≈ 169 µM); in the test on Nannizzia gypsea, 4 µg/mL (≈ 10.6 µM); against Cryptococcus neoformans it was 4 µg/mL (≈ 10.6 µM); against Candida tropicalis it was 4 µg/mL (≈ 10.6 µM). This compound also gave an MIC80 in the test on Trichophyton rubrum of 8 µg/mL (≈ 21.1 µM).
As for `Cc1ccc(OCCCn2c3c(c4cc(F)ccc42)CNCC3)cc1`, the MIC80 against Pichia kudriavzevii was determined as 4 µg/mL (≈ 11.8 µM); against Candida albicans, 8 µg/mL (≈ 23.6 µM); in the test with Candida parapsilosis, 4 µg/mL (≈ 11.8 µM); in the test with Nannizzia gypsea, 4 µg/mL (≈ 11.8 µM); against Cryptococcus neoformans it was 4 µg/mL (≈ 11.8 µM); against Candida tropicalis it was 16 µg/mL (≈ 47.3 µM). This compound came in with an MIC80 in the test with Trichophyton rubrum of 2 µg/mL (≈ 5.91 µM).
On to `CN1CCc2c(c3cc(Cl)ccc3n2C(=O)c2ccccc2Br)C1`, for which the MIC80 with Nakaseomyces glabratus is greater than 64 µg/mL; in the test on Aspergillus fumigatus, greater than 64 µg/mL; in the test with Candida albicans it was greater than 64 µg/mL; in the test on Candida parapsilosis, 64 µg/mL (≈ 159 µM); against Nannizzia gypsea, greater than 64 µg/mL; against Cryptococcus neoformans, greater than 64 µg/mL. For the same compound, the MIC80 with Trichophyton rubrum was greater than 64 µg/mL.
